Key:
[1] = tested on: Aedes aegypti; assay: Insecticidal in Aedes aegypti larvae measured after 48 hrs; type: functional
[2] = tested on: Anopheles sp.; assay: Insecticidal in Anopheles sp. assessed as mortality rate fed with blood of compound treated dog at 10 to 2500 microg/kg observed after 48 hrs relative to control; type: functional, organism-based; conditions: dose 10-2500 µg/kg
[3] = tested on: Aedes aegypti; assay: Insecticidal in Aedes aegypti assessed as lethal concentration membrane-fed with compound treated blood; type: functional, organism-based
[4] = tested on: Anopheles stephensi; assay: Insecticidal in Anopheles stephensi assessed as mortality rate fed with blood of compound treated rabbits at 0.34 mg/kg, sc 4 to 6 days post-injection relative to control; type: functional, organism-based; conditions: time 4-6 day
[5] = tested on: Anopheles sp.; assay: Insecticidal in Anopheles sp. assessed as reduction in survival rate fed with compound treated human blood at 400 microg/kg observed in 48 hrs relative to control; type: functional, organism-based; conditions: dose 400.0 µg/kg
[6] = tested on: Plasmodium vivax; assay: Antimalarial activity against Plasmodium vivax assessed as reduction in […] in Anopheles sp. mosquito midgut fed with blood isolated from compound treated parasite-infected human at 40 ng/ml observed after 7 days relative to control; type: functional, organism-based; conditions: time 7.0 day
[7] = tested on: Anopheles sp.; assay: Insecticidal in Anopheles sp. infected with Plasmodium vivax assessed as mortality rate midgut fed with blood isolated from compound treated parasite-infected human observed after 7 days relative to control; type: functional, organism-based; conditions: time 7.0 day
[8] = tested on: Anopheles sp.; assay: Insecticidal in Anopheles sp. assessed as mortality rate fed with blood of compound treated human at 250 microg/kg administered once and observed for 3 days relative to control; type: functional, organism-based; conditions: dose 250.0 µg/kg, time 3.0 day
[9] = tested on: Anopheles sp.; assay: Insecticidal in Anopheles sp. assessed as mortality fed with compound treated pig blood at 600 microg/kg observed within 2 to 4 days feeding upto 8 days after drug administration relative to control; type: functional, organism-based; conditions: dose 600.0 µg/kg, time 2-4 day
[10] = tested on: Anopheles arabiensis; assay: Insecticidal in Anopheles arabiensis assessed as percentage of mortality in 10 day survivorship fed with compound treated bovine blood at 73 mg observed for 24 weeks relative to control; type: functional, organism-based
[11] = tested on: Anopheles sp.; assay: Insecticidal in Anopheles sp. assessed as number of eggs per female fed with compound treated human blood administered as a single dose at 10 microg/ml fed at 4 hrs post treatment; type: functional, organism-based; conditions: dose 10.0 µg/ml
[12] = tested on: Anopheles arabiensis; assay: Insecticidal in Anopheles arabiensis assessed as reduction in fecundity fed with compound treated bovine blood at 200 microg/kg relative to control; type: functional, organism-based; parameters: scale not given: the % may be the effect or the level left; conditions: dose 200.0 µg/kg
[13] = tested on: Anopheles arabiensis; assay: Insecticidal in Anopheles arabiensis assessed as mortality observed within 48 hrs after ingestion relative to control; type: functional, organism-based

IVERMECTIN gave an LC50 [1] of 23.4 ppb, a mortality [2] of 90% and an MLC [3] of 2.5 ppm. The mortality [4] was 93%, the Survival [5] was 31% and the inhibition [6] was 86%. It also gave a mortality [7] of 97.1%, a mortality [8] of 80% and a mortality [9] of 100%. For the same sequence, the mortality [10] was 90%, the Activity [11] was 22.4 and the Activity [12] was 79%. The mortality [13] was 95%.

— ChEMBL document CHEMBL5226321, “Ivermectin: A Promising Therapeutic for Fighting Malaria. Current Status and Perspective” (J Med Chem, 2021)
